{
  "source": "paper PMC8648761",
  "about": "“Reductive inactivation of the hemiaminal pharmacophore for resistance against tetrahydroisoquinoline antibiotics” (Nature Communications, 2021)",
  "key": {"[1]": {"target": "T1, SfmC (Streptomyces lavendulae, UniProt B0CN27)", "T1 construct": "NRPS", "T1 sequence (B0CN27 entry or part of it)": "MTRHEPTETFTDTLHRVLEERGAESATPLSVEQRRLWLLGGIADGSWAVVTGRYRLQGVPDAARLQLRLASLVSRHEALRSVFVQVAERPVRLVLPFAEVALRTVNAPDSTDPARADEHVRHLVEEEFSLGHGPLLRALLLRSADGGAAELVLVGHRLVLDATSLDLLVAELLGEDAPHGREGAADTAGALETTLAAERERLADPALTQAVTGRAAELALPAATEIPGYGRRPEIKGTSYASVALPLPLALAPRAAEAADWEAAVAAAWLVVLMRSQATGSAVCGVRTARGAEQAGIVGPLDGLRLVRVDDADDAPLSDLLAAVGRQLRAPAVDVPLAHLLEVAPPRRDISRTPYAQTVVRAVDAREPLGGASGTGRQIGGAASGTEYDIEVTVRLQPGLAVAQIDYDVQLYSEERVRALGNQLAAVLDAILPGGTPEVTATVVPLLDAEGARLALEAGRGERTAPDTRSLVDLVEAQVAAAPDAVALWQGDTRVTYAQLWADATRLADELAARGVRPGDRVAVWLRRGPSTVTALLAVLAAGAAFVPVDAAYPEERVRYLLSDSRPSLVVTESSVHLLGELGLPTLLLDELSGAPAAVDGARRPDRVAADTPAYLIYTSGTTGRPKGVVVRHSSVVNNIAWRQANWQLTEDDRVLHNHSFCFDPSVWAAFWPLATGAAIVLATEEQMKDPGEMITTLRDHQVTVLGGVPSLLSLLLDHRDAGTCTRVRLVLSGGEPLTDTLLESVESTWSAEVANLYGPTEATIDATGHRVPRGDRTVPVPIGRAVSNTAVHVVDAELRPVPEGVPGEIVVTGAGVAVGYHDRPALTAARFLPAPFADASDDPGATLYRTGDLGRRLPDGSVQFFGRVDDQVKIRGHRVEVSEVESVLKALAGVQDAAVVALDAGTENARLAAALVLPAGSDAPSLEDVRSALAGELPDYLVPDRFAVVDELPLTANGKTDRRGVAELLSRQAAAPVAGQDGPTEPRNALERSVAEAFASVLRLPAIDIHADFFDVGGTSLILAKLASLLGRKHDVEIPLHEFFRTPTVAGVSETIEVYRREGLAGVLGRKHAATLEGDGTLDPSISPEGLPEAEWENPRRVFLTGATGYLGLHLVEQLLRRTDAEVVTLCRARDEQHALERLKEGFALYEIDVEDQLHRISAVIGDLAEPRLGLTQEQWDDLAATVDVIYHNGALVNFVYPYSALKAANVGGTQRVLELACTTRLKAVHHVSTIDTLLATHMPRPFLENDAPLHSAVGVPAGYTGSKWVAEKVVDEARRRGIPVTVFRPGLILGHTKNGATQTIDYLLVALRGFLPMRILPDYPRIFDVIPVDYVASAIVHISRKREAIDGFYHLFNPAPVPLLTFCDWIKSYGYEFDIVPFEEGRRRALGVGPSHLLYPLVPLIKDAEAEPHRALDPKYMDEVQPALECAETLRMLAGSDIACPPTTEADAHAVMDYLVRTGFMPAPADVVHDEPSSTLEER", "experiment": "MS of dual Pictet-Spengler product […]", "type": "biochemical", "conditions": "1 mM substrate, 0.5 mM myristoyl-Ala-glycinaldehyde, 1 mM ATP, MgCl2, MnCl2, NADH, HEPES pH 7.0, 30 C, 2 h"}, "[2]": {"target": "T2, NapW (Streptomyces lusitanus, UniProt S4TKM8)", "T2 construct": "recombinant in E. coli BL21(DE3), His-tagged, Ni-NTA (pET-28a or pET-37b)", "T2 sequence (S4TKM8 entry or part of it)": "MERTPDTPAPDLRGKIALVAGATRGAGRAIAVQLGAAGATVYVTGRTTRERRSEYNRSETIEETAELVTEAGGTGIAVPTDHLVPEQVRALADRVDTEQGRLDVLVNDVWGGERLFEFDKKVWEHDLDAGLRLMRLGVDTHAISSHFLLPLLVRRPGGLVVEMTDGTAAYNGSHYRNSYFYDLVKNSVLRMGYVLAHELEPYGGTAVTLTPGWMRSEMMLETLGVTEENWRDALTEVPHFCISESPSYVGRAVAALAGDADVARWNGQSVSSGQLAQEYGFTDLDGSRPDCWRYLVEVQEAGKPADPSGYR", "experiment": "X-ray crystal structure (co-crystallisation)", "type": "binding", "conditions": "co-crystallised with 5 mM NADPH; modelled as NADP+; Rossmann fold site"}, "[3]": {"system": "T3, SDR-Rm (Rhizobium mesoamericanum)", "T3 construct": "recombinant in E. coli BL21(DE3), His-tagged", "T3 sequence (Z9SGJ4VC86 1-304)": "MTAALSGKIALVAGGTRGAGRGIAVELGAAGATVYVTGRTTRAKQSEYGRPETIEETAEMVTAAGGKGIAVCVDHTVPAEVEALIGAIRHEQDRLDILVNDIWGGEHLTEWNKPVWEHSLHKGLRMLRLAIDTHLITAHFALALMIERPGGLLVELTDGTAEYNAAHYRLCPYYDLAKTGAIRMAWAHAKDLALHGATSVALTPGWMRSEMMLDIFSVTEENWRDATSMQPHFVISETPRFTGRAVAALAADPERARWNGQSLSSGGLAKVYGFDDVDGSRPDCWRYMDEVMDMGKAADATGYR", "experiment": "HPLC of reduction to […]", "type": "biochemical", "conditions": "[…] ET-[…] NADPH, Tris-HCl pH […] C, […] h"}, "[4]": {"target": "T4, homO1a (Streptomyces lavendulae, UniProt A0A895ZRD1)", "T4 sequence (A0A895ZRD1 1-325)": "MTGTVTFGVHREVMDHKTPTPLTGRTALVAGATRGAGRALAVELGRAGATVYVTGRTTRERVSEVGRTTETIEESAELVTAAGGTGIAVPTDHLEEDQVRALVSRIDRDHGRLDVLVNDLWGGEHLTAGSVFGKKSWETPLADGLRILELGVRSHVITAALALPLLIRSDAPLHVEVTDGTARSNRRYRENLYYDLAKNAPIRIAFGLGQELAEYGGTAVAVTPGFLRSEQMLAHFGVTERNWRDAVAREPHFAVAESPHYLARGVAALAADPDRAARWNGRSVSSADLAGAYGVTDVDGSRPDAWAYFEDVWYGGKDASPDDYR", "experiment": "HPLC and MS of reduction to […]", "type": "biochemical", "conditions": "[…] ET-[…] NADPH, Tris-HCl pH […] C, […] h"}, "[5]": {"target": "T5, SDR-Mb (Myxococcales bacterium, UniProt A0A1M3NHK2)", "T5 construct": "recombinant in E. coli BL21(DE3), His-tagged", "T5 sequence (A0A1M3NHK2 1-336)": "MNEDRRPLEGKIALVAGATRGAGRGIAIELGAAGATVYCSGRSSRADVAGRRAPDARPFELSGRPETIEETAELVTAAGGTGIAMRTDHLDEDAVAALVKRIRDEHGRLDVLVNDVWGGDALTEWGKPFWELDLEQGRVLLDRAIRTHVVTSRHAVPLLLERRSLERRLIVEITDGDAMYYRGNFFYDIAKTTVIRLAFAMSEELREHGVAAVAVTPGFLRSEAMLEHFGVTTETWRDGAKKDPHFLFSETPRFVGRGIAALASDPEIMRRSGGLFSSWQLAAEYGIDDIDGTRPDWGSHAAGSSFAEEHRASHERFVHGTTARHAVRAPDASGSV", "experiment": "HPLC of reduction to […]", "type": "biochemical", "conditions": "[…] ET-[…] NADPH, Tris-HCl pH […] C, […] h"}, "[6]": {"target": "T6, homW (Streptomyces lusitanus, UniProt A0A896A0X3)", "T6 sequence (A0A896A0X3 1-304)": "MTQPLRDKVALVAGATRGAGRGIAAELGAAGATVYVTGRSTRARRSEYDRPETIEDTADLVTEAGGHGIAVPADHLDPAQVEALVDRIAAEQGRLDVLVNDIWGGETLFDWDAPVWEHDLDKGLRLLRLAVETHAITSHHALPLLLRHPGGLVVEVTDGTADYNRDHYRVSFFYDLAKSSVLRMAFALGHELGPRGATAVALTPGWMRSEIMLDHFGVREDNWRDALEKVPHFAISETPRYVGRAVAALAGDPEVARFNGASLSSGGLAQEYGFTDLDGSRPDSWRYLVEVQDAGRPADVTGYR", "experiment": "HPLC and MS of reduction to […]", "type": "biochemical", "conditions": "[…] ET-[…] NADPH, Tris-HCl pH […] C, […] h"}, "[7]": {"target": "T7, SDR-Cs (Chlorella sorokiniana, UniProt A0A2P6TRY4)", "T7 construct": "gene C2E21_4667; recombinant in E. coli BL21(DE3), His-tagged", "T7 sequence (A0A2P6TRY4 entry or part of it)": "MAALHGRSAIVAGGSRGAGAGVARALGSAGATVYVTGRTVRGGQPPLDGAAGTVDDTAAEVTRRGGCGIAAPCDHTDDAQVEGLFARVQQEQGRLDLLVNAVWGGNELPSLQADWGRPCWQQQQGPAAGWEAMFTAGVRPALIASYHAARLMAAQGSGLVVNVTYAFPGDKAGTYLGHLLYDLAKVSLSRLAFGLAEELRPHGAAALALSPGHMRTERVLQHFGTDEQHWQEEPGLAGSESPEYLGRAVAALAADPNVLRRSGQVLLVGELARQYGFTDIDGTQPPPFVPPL", "experiment": "HPLC of reduction to […]", "type": "biochemical", "conditions": "290 uM ET-743, 1 mM NADPH, Tris-HCl pH 8.0, 30 C, 8 h"}, "[8]": {"target": "T8, SDR-Pb (Paenibacillus rhizosphaerae, UniProt A0A1R1EZ79)", "T8 construct": "gene BK138_00365; recombinant in E. coli BL21(DE3), His-tagged", "T8 sequence (A0A1R1EZ79 entry or part of it)": "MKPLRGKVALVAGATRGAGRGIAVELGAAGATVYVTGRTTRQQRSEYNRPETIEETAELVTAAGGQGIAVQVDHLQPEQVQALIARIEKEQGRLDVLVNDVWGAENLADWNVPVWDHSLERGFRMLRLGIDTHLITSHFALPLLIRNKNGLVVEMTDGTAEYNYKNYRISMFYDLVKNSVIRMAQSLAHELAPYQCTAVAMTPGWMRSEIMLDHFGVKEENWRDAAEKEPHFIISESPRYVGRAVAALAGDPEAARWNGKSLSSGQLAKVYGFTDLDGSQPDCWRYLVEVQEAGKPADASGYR", "experiment": "HPLC of reduction to […]", "type": "biochemical", "conditions": "290 uM ET-743, 1 mM NADPH, Tris-HCl pH 8.0, 30 C, 8 h"}, "[9]": {"target": "T9, homO1b (Streptomyces lavendulae, UniProt A0A896A5A8)", "T9 sequence (A0A896A5A8 1-308)": "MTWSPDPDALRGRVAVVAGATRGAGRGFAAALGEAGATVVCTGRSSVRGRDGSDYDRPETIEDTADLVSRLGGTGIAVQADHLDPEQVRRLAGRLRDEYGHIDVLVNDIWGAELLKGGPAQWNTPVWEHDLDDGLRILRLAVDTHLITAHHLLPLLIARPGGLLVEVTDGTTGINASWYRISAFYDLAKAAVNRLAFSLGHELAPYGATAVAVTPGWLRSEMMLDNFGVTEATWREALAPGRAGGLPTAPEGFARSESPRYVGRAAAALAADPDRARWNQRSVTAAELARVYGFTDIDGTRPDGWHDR", "experiment": "HPLC and MS of reduction to […]", "type": "biochemical", "conditions": "[…] ET-[…] NADPH, Tris-HCl pH […] C, […] h"}, "[10]": {"target": "T2, NapW", "experiment": "HPLC and MS of reduction to […]", "type": "biochemical", "conditions": "290 uM ET-743, 1 mM NADPH, Tris-HCl pH 8.0, 30 C, 8 h"}, "[11]": {"target": "SfmO1 (Streptomyces lavendulae, UniProt B0CN12)", "sequence (B0CN12 entry or part of it)": "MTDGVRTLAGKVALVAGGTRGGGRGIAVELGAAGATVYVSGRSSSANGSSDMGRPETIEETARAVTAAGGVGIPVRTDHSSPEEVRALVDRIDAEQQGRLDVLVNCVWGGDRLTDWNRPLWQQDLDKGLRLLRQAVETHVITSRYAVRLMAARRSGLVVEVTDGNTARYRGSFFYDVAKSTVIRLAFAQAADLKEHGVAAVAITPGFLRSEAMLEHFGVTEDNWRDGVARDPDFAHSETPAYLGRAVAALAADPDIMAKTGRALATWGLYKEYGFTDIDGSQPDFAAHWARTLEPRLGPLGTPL", "experiment": "HPLC and MS of reduction to […]", "type": "biochemical", "conditions": "290 uM ET-743, 1 mM NADPH, Tris-HCl pH 8.0, 30 C, 8 h"}},
  "data": [
    {"smiles": "COc1c(C)cc(C[C@H](N)C(=O)O)cc1O", "note": "[3-OH-5-Me-O-Me-Tyr]", "values": [
      {"measurement": "MS of dual Pictet-Spengler product 16", "setting": "[1]", "value": "Dual Pictet-Spengler reactions catalyzed SfmC"}
    ]},
    {"smiles": "NC(=O)c1ccc[n+]([C@@H]2O[C@H](COP(=O)(O)OP(=O)(O)OC[C@H]3O[C@@H](n4cnc5c(N)ncnc54)[C@H](OP(=O)(O)O)[C@@H]3O)[C@@H](O)[C@H]2O)c1", "note": "[NADP^+]", "values": [
      {"measurement": "X-ray crystal structure (co-crystallisation)", "setting": "[2]", "value": "We further obtained the structure of NapW·NADP^+ binary complex by co-crystallizing NapW, NADP(H)"}
    ]},
    {"smiles": "COc1cc2c(cc1O)CCN[C@]21CS[C@@H]2c3c(OC(C)=O)c(C)c4c(c3[C@H](COC1=O)N1[C@@H]2[C@H]2c3c(cc(C)c(OC)c3O)C[C@@H]([C@@H]1O)N2C)OCO4", "note": "[compound 7, ET-743]", "values": [
      {"measurement": "HPLC of reduction to 8", "setting": "[3]", "value": "most proteins can catalyze reductive reaction of THIQ compounds except that SDR-Li and SDR-Ss"},
      {"measurement": "HPLC and MS of reduction to 8", "setting": "[4]", "value": "each of the five SDRs originated from NDM or SFM-A producer could effectively catalyze"},
      {"measurement": "HPLC of reduction to 8", "setting": "[5]", "value": "most proteins can catalyze reductive reaction of THIQ compounds except that SDR-Li and SDR-Ss"},
      {"measurement": "HPLC and MS of reduction to 8", "setting": "[6]", "value": "each of the five SDRs originated from NDM or SFM-A producer could effectively catalyze"},
      {"measurement": "HPLC of reduction to 8", "setting": "[7]", "value": "most proteins can catalyze reductive reaction of THIQ compounds except that SDR-Li and SDR-Ss"},
      {"measurement": "HPLC of reduction to 8", "setting": "[8]", "value": "most proteins can catalyze reductive reaction of THIQ compounds except that SDR-Li and SDR-Ss"},
      {"measurement": "HPLC and MS of reduction to 8", "setting": "[9]", "value": "each of the five SDRs originated from NDM or SFM-A producer could effectively catalyze"},
      {"measurement": "HPLC and MS of reduction to 8", "setting": "[10]", "value": "each of the five SDRs originated from NDM or SFM-A producer could effectively catalyze"},
      {"measurement": "HPLC and MS of reduction to 8", "setting": "[11]", "value": "each of the five SDRs originated from NDM or SFM-A producer could effectively catalyze"}
    ]}
  ]
}
